# Assay results taken from PMC12752627, “Discovery of a Potent and Selective TEAD Degrader with Durable Degradation Activity” (Advanced Science, 2025).
# Where two headings read alike, the source gives them in different places.
# What was measured:
# MSTO-211H xenograft [1] = assay: MSTO-211H xenograft pharmacodynamic study (3 mg/kg i.p.); assay type: in vivo, BALB/c nude mice; details: 3 mg/kg i.p. q.d. 21 days
# Protocol: Animal experiments were conducted by Medsyin (Shanghai) Co., Ltd. The experimental protocol was approved by the IACUC of the company (No.: PZWH20240527‐1) and strictly adhered to the guidelines of AAALAC. The specific procedures are as follows: 5 × 10^6 MSTO‐211H cells were suspended in 100 µL of a mixture of PBS and Matrigel and inoculated subcutaneously into the right axilla of 6‐week‐old BALB/c nude mice. Drug administration was initiated on day 7 after cell inoculation (when the average tumor volume was ≈150 mm^3). The experiment was divided into two groups: one group served as the control group, and the other group received drug administration via intraperitoneal injection at a dose of 3 mg kg^−1 (6 mice in each group), once a day for 21 consecutive days. During the experiment, the body weight and tumor volume of the mice were measured twice a week. At the end of the experiment, the mice were sacrificed and tumor tissues were collected.
# A172 cells = assay: RNA-seq transcriptomics in A172 cells; assay type: cell-based; details: 30 nM, 24 h
# Protocol: Following treatment, cells were harvested, washed three times with pre‐chilled PBS, and stored at −80 °C. Total RNA was extracted using TRIzol reagent according to the manufacturer's instructions. mRNA was enriched using oligo(dT) magnetic beads, followed by fragmentation in First Strand Synthesis Reaction Buffer (5×) with divalent cations under elevated temperature.
# RNA‐seq libraries were constructed using the ABclonal Fast RNAseq Lib Prep Kit V2 (#RK20306). […] Base calling was performed through real‐time fluorescence capture of polymerase‐driven extension reactions using fluorescently labeled dNTPs and adapter‐anchored primers. Gene‐level read counts were quantified using featureCounts (v2.0.6) and normalized to FPKM values by incorporating gene length. Differential expression analysis was conducted using the DESeq2 package (v1.42.0) for samples with biological replicates, based on the negative binomial distribution. P‐values were adjusted using the Benjamini–Hochberg method, with significance thresholds set at adjusted p ≤ 0.05 and |log2(fold change)| ≥ 1. For samples without replicates, edgeR (v4.0.16) was used, with scaling normalization applied to correct for sequencing depth differences. Functional enrichment analysis, including Gene Ontology (GO) and KEGG pathway analysis, was performed using clusterProfiler (v4.8.1), with correction for gene length bias. A significance threshold of adjusted p < 0.05 was applied. In addition, Gene Set Enrichment Analysis (GSEA) was performed to assess coordinated expression changes in predefined gene sets (GO and KEGG), with genes ranked by the magnitude of differential expression. All transcriptomic experiments were performed by Novogene Co., Ltd.
# MSTO-211H cells = assay: Cell viability assay (CTG, 72 h) MSTO-211H; assay type: cell-based; details: Homo sapiens
# Protocol: (§1) Cells were seeded at a density of 1000 cells per well in 96‐well flat‐bottomed cell culture plates and cultured overnight at 37 °C with 5% CO2 to allow for cell attachment. The following day, different concentrations of compounds were added using an I‐DOT dispenser. After 72 h, 25 µL of CellTiter‐Meiluncell Luminescent Cell Viability Reagent (Meilunbio, #PWL111‐2) was added and incubated for 15 min at room temperature. Luminescence signals were then measured using an Envision plate reader (Revvity). Data were analyzed using GraphPad Prism 9.5 software.^[ [30] ^]
# MSTO-211H xenograft [2] = assay: MSTO-211H xenograft efficacy study; assay type: in vivo, BALB/c nude mice; details: for Tumor growth inhibition (TGI) rate: MSTO-211H xenograft
# Protocol: (§2) Animal experiments were conducted by Medsyin (Shanghai) Co., Ltd. The experimental protocol was approved by the IACUC of the company (No.: PZWH‐2025031003) and strictly adhered to the guidelines of the AAALAC. The specific procedures are as follows: 5 × 10^6 MSTO‐211H cells or ES2 cells were suspended in 100 µL of a mixture of PBS and Matrigel and inoculated subcutaneously into the right axilla of 6‐week‐old BALB/c nude mice. Drug administration was initiated on day 7 after cell inoculation (when the average tumor volume was ≈150 mm^3). The experiment was divided into four groups with 6 mice in each group. The specific grouping and administration methods are as follows: control group, KY‐001 group (10 mg kg^−1, p.o.), KG‐FP‐003 (10 mg kg^−1 or 30 mg kg^−1, i.p.). The administration routes included intraperitoneal injection and intragastric administration, once a day for 21 consecutive days. During the experiment, the body weight and tumor volume of the mice were measured twice a week. At the end of the experiment, the mice were sacrificed and tumor tissues were collected.
# CRBN = molecular target: T1, CRBN (Homo sapiens, UniProt Q96SW2); assay: Intracellular CRBN binding in NanoLuc-CRBN-overexpressing HEK293T cells; assay type: cell-based; details: read-out: Cellular CRBN Binding IC50 (nM ± SD)
# T1 construct: expressed in transfected cells; host or cells: HEK293T
# T1 sequence (Q96SW2 whole entry): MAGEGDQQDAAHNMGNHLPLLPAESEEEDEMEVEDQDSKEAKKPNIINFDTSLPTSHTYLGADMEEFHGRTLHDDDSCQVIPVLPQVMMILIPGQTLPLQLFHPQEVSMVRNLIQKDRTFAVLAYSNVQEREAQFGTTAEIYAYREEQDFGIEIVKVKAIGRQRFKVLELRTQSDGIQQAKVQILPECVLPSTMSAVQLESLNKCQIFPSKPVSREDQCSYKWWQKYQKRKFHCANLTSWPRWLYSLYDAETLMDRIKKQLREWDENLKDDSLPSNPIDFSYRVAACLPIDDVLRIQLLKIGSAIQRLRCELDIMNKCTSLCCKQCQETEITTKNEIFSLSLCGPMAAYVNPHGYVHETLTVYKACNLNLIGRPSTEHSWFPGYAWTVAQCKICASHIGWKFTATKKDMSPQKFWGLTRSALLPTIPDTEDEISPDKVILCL
# Protocol: NanoLuc‐CRBN‐overexpressing HEK293T were seeded in 96‐well plates at a density of 2000 per well. The following day, compounds was added to the plate starting from 10 µM for a 3‐fold gradient dilution and incubated for 2 h. […] Finally, the signal was measured using an Envision plate reader (Revvity) and the data were analyzed using the GraphPad Prism 9.5 software.
# ES2 xenograft = ES2 xenograft efficacy study; assay type: in vivo, BALB/c nude mice; details: 10 and 30 mg/kg
# Protocol: as §2
# [3] = test system: CTGF, ANKRD1, NPPB, PTX3 expression; assay: RT-qPCR in A172 cells incl. washout; assay type: cell-based; details: 6 h treatment, 18 h
# Protocol: Cells were seeded in 6‐well plates at a density of 1 million cells per well. The following day, different concentrations of compounds were added, and cells were collected after 24 h. For wash‐out experiments, cells were pre‐treated with compounds at indicated concentrations for 6 h, then cells were washed three times with PBS, and an equal volume of complete medium without compounds was added and incubated for another 18 h.
# RNA was isolated and purified from the samples using the EZ‐10 Rotary Column Total RNA Isolation Kit (Sangon Biotech, B615012). After measuring the RNA concentration, 200 ng of purified RNA was used for genomic DNA removal and reverse transcription to cDNA with the HiScript III 1st Strand cDNA Synthesis Kit (+DNA wiper) (Vazyme, R312‐02). The resulting cDNA was then prepared into a reaction mix according to the ChamQ SYBR qPCR Mix (Vazyme, #q711‐02). Real‐time PCR analysis was performed using a QuantStudio 6 Pro real‐time PCR system (Thermo Fisher Scientific). Relative gene expression was calculated using the 2‐∆∆CT method.
# ES2 cells = assay: Cell viability assay (CTG, 72 h) ES2; assay type: cell-based; details: Homo sapiens, ES-2, 72 h, 3-day compound treatment
# Protocol: as §1
compound,measurement,setting,value
CNC(=O)c1cc2c(c(F)c1-c1c(Cl)c(F)cc3c1C[C@@](CN[C@H]1CC[C@H](C(=O)N4CCC(CC5CCN(C(=O)COc6ccc(N7CCC(=O)NC7=O)c(C)c6)CC5)CC4)CC1)(c1ccccc1)O3)[C@@H](O)[C@@H](C)C2 [KG-FP-003],TEAD1 protein degradation in tumor,MSTO-211H xenograft [1],pronounced degradation of TEAD1 protein
same,Tumor growth inhibition versus vehicle,MSTO-211H xenograft [1],significant tumor growth inhibition
same,Share of the compound's regulated genes in the 56-gene overlap,A172 cells,4%
same,DEG gene counts (Down),A172 cells; VS Control (DMSO),611
same,DEG gene counts (Up),A172 cells; VS Control (DMSO),662
same,IC50,"MSTO-211H cells; 72 h, 3-day antiproliferation, Figure 3C, read-out: IC50 (nM ± SD), MSTO-211H",47 ± 5 nM
same,IC50,"MSTO-211H cells; wild-type, Figure 3D, read-out: MSTO-211H: WT IC50",47 ± 5 nM
same,Tumor growth inhibition (TGI) rate,MSTO-211H xenograft [2]; 10 mg/kg i.p. q.d. 21 days,118%
same,Tumor growth inhibition (TGI) rate,MSTO-211H xenograft [2]; 30 mg/kg i.p. q.d. 21 days,129%
same,Body weight during treatment,"MSTO-211H xenograft [2]; 10 or 30 mg/kg i.p., 21 days, MSTO-211H xenograft mice",stable body weights
same,IC50,CRBN,962 ± 86 nM
same,Tumor response in ES2 xenograft,ES2 xenograft,significant tumor regression
same,Repression of TEAD target genes after washout (qPCR),[3],sustained and pronounced repression
same,IC50,ES2 cells,202 ± 14 nM
